Assay results reported in US7001770B1, “Calpain inhibitors and their applications” (priority 1998, dated 2006).
Square brackets hold non-standard residues; d marks the D form. Peptide text beside a SMILES is read from it. Nle = CCCC[C@H](N)C(=O)O

How the values were obtained:
[1] = system: beta-galactosidase transgene; test: In vivo transgene RNA in liver by RT-PCR; design: species or system C57BL/6 mice; details: CI-1 60 mg/kg ip, three administrations; 9×10^9 particle/ml rAd beta-galactosidase tail vein; seen in one third of the mice
Procedure: […] C57BL/6 mice were treated with 60 mg/kg injected intraperitoneally on day minus one. Three control mice were injected with CI-1 solvent only (PBS/0.02% DMSO). On day zero, all mice were tail vein injected with 9×10^9 particle/ml with a recombinant adenovirus encoding the beta-galactosidase transgene. CI-1 or solvent was administed one additional time on day one for three total intraperitoneal administrations of CI-1. Mice were sacrificed three days and nine days later (four-and ten days post-infection respectively), and livers were harvested for quantitative PCR and RT-PCR to detect viral DNA and viral transcript (b-galactosidase) respectively. One third of the miceexpressed a high level of transgene RNA in response to calpain inhibitor 1 treatment, as compared with virus alone.

[2] = system: RKO cells; test: G0/G1 cell cycle arrest by BrdU labeling, flow cytometry; type: cell-based; details: 5 μM CI-1 for 17 hours, 2 hour pulse; DMF control 47%
Procedure: (§1) In order to determine any increases in p53 function in response to calpain inhibitor 1, the quantity of cells undergoing G0/G1 cell cycle arrest in response to CI-1 administration, was assayed by bromodeoxyuridine labeling of cells. Each of the cell lines described in Example 2 above were exposed to a concentration of 0 or 5 μM CI-1 (in DMF) as described in Example 3 above. Cell lines treated with DMF alone or 5 μM final concentration of calpain inhibitor 1 for 17 hours were pulse labeled with a final concentration of 10 μM bromodeoxyuridine (Boehringer Mannheim) for two hours. Cells were harvested for bivariate BrdU/DNA flow cytometric analysis by fixation in 70% ethanol, followed digestion with 0.08% pepsin for 30 minutes at 37 degrees. Cells were centrifuged at 1500 RPM, and 2N HCL was added. Cells were incubated at 37 degrees for 20 minutes, followed by addition of 1M sodium borate. Cells were washed in IFA/tween 20 (0.01 M HEPES, 0.005% sodium azide, 0.5% tween 20, 5% FBS, […]), and anti-BrdU antibody, diluted 1:10 in IFA without tween 20, was added for 30 minutes. Cells were washed in IFA/tween 20, and incubated in IFA/tween 20/RNase for 15 minutes at 37 degrees.
(§2) Cells that had incorporated BrdU were stained using a FITC conjugated monoclonal antibody to BrdU (commercially available from Becton-Dickinson) and detected by FACS analysis on a FACScan FACS machine (commercially available from Becton Dickinson).

[3] = system: SK-Hep1 cells; test: as above; type: cell-based; details: 5 μM CI-1 for 17 hours, 2 hour pulse; DMF control 34%
Procedure: as §1, §2

[4] = system: DLD1 cells; test: as above; type: cell-based; details: 5 μM CI-1 for 17 hours, 2 hour pulse; 35% without calpain treatment
Procedure: as §1, §2

[5] = system: HLF cells; test: as above; type: cell-based; details: 5 μM CI-1 for 17 hours, 2 hour pulse; DMF control 42%
Procedure: as §1, §2

[6] = system: p53 protein levels in Hep3B cells (p53 null); test: Western blot of p53 protein levels; type: cell-based; details: rAd-p53 in the presence of 10 μM calpain inhibitor 1 versus rAd53 alone; 17 hours
Procedure: To determine if increases in exogeneous p53 levels occurred in response to CI-1, the p53 null cell line Hep3B was infected with 1×10^9 particle/ml and assayed for p53 protein levels by western blots 17 hours post-infection. No p53 protein was detected in untreated Hep3B. p53 protein was detected in cells infected with rAd53 alone, and increased greater then 10 fold when infected with rAd-p53 in the presence of 10 μM calpain inhibitor 1. […] The enhancement of p53 stability by CI-1 may not, therefore, be the sole mechanism by which enhanced cell death has been achieved. […] Thus, a new mechanism of action is involved other than p53 stability in the increased induction of apoptosis by the combination of CI-1 and p53.
At 17 hours post treatment, cells were lysed in protein lysis buffer (50 mM tris, 250 mM NaCl, 50 mM NaF, 5 mM EDTA and 0.1% NP-40 with 1 mM PMSF). Cell lysates were subjected to electrophoresis. 10 μg of protein was added per lane on a 12% polyacrylamide gel and transfered onto nitrocellulose membranes. The membranes were subjected to western blot analysis using antibodies specific for p53 or p21 (Calbiochem, p53 antibody Ab-6, and p21 antibody Ab-7). […] Blots were developed using enhanced chemiluminescence detection system (Amersham) and quantitated using NIH imaging analysis.

CCCC[C@@H](C=O)NC(=O)[C@H](CC(C)C)NC(=O)[C@H](CC(C)C)NC(C)=O [CI-1, N-acetyl-leu-leu-norleucinal] (Ac-Leu-Leu-[Nle]-aldehyde)
level of transgene RNA in liver compared with virus alone [1]: Approximately a six fold higher level
cells incorporating BrdU label [2]: 16%
cells incorporating BrdU label [3]: 8%
cells incorporating BrdU [4]: about 25%
cells incorporating BrdU label [5]: 35%
increase in p53 protein [6]: > 10 fold
